The values that follow are results of earlier work, collected in patent publication US20240252348A1, “EVA SEGMENTED INTRAVAGINAL RINGS CONTAINING PROGESTERONE” (priority 2019, published 2024).

The data set has as its system women with a short cervix. The settings on record: singleton pregnant women with short cervical length (SCL).

`CCCCCC(=O)O[C@]1(C(C)=O)CC[C@H]2[C@@H]3CCC4=CC(=O)CC[C@]4(C)[C@H]3CC[C@@]21C` [Makena, 17-alpha hydroxyprogesterone caproate]: the “prevention of preterm birth” value is listed as “ineffective”.
